# Test results as given in ChEMBL document CHEMBL5465560, “Selectivity Literature for EUbOPEN Chemogenomic Library” (2024).
# pIC50: −log10 of the molar value.
# How the values were obtained:
# [1] = target: Tyrosine-protein kinase SYK (Homo sapiens, UniProt P43405); assay: Selectivity interaction (Millipore kinase profiler) EUB0000124b SYK; settings: at 10 µM
# [2] = target: RAC-alpha serine/threonine-protein kinase (Homo sapiens, UniProt P31749); assay: Selectivity interaction (Millipore kinase profiler) EUB0000124b AKT1; settings: at 10 µM
# [3] = target: Calcium/calmodulin-dependent protein kinase kinase 2 (Homo sapiens) (UniProt Q96RR4); assay: Selectivity interaction (KinomeScan (DiscoverX)) EUB0000229b CAMKK2; settings: at 10 µM
# [4] = target: Alpha-1A adrenergic receptor (Homo sapiens, UniProt P35348); assay: Selectivity interaction (Alpha1A calcium flux assay ) EUB0000877a ADRA1A
# [5] = target: T1, Dual specificity protein kinase TTK (Homo sapiens) (UniProt P33981); settings: at 10 µM
# T1 sequence (whole entry): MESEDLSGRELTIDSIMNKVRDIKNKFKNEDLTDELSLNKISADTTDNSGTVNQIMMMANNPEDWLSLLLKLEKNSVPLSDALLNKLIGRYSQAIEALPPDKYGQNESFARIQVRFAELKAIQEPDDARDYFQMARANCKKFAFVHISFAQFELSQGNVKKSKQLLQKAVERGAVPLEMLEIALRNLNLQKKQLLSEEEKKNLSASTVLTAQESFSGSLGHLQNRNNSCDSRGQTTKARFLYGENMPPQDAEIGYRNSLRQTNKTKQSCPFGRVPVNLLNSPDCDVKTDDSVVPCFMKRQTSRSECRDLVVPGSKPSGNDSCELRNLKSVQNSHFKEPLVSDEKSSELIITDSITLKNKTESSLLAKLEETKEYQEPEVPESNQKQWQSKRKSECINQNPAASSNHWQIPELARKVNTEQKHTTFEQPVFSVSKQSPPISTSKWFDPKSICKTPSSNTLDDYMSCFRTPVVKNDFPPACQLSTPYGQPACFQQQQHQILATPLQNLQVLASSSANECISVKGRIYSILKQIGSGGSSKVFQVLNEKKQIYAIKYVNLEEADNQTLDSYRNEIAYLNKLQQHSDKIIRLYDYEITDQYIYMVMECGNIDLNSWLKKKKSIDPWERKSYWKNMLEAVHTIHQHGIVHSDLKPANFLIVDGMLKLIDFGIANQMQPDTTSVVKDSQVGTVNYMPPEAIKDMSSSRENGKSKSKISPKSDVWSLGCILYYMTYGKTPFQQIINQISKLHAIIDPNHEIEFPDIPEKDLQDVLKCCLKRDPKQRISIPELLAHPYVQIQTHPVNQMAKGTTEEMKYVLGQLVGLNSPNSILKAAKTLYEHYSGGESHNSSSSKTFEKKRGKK
# [6] = target: RAC-gamma serine/threonine-protein kinase (Homo sapiens, UniProt Q9Y243); assay: Selectivity interaction (Kinase panel (Invitrogen)) EUB0000639a AKT3; settings: at 200 nM
# [7] = target: T2, Tyrosine-protein kinase Tec (Homo sapiens) (UniProt P42680); assay: Selectivity interaction (ActivX KiNativ screen (kinase selectivity in THP-1 cell lysates)) EUB0000639a TEC; assay type: subcellular; settings: lysate, at 1 µM
# T2 sequence (whole entry): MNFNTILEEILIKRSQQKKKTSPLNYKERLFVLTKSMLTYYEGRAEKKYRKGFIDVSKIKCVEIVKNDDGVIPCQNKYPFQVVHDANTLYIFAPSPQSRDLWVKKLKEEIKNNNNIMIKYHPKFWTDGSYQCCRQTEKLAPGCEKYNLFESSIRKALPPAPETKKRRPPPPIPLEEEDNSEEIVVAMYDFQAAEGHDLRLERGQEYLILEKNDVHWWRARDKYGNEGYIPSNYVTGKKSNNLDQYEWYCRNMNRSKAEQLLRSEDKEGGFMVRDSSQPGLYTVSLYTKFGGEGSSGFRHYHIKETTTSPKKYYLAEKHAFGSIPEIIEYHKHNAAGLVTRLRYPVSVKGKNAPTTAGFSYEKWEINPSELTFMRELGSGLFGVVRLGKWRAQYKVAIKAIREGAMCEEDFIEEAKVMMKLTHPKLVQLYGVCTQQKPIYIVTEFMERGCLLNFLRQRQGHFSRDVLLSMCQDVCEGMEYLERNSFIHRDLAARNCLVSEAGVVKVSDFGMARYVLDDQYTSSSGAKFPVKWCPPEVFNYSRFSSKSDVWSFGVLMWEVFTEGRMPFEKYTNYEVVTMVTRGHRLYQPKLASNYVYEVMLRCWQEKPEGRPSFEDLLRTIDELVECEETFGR
# [8] = target: Calcium/calmodulin-dependent protein kinase kinase 2 (Homo sapiens) (UniProt Q96RR4); assay: Selectivity interaction (Ambit KINOMEscan and KiNATiv profiling in Jurkat cells) EUB0000090b CAMKK2; assay type: cell-based; settings: at 1 µM
# [9] = target: Calcium/calmodulin-dependent protein kinase type II subunit beta (Homo sapiens) (UniProt Q13554); assay: Selectivity interaction (KinomeScan (DiscoverX)) EUB0000045b CAMK2B
# [10] = target: T3, Ankyrin repeat and protein kinase domain-containing protein 1 (Homo sapiens) (UniProt Q8NFD2); assay: Selectivity interaction (KinomeScan (DiscoverX)) EUB0000618a ANKK1; settings: at 10 µM
# T3 sequence (whole entry): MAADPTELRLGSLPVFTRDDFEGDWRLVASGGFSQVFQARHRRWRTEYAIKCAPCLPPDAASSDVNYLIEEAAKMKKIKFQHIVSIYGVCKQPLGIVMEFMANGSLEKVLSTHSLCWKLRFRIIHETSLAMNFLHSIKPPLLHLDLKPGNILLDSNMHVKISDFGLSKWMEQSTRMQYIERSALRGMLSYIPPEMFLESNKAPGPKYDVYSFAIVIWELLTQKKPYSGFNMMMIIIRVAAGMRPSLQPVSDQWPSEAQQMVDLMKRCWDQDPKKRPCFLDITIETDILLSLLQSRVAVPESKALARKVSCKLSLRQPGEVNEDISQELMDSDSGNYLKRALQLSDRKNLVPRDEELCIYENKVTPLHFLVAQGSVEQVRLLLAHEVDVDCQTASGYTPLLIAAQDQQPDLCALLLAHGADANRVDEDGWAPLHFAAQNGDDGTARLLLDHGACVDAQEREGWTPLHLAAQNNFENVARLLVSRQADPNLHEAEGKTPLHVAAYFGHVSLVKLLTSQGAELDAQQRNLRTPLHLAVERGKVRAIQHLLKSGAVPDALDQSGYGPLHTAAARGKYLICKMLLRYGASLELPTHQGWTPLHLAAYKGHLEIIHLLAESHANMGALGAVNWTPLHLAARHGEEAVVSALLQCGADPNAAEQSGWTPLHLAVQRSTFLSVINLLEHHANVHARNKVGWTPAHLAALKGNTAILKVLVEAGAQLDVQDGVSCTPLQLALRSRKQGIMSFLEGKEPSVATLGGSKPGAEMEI
# [11] = target: Dual specificity tyrosine-phosphorylation-regulated kinase 1A (Homo sapiens, UniProt Q13627); settings: at 10 µM
# Chain of Calcium/calmodulin-dependent protein kinase kinase 2 (Homo sapiens) (Q96RR4 2-588 limits assumed): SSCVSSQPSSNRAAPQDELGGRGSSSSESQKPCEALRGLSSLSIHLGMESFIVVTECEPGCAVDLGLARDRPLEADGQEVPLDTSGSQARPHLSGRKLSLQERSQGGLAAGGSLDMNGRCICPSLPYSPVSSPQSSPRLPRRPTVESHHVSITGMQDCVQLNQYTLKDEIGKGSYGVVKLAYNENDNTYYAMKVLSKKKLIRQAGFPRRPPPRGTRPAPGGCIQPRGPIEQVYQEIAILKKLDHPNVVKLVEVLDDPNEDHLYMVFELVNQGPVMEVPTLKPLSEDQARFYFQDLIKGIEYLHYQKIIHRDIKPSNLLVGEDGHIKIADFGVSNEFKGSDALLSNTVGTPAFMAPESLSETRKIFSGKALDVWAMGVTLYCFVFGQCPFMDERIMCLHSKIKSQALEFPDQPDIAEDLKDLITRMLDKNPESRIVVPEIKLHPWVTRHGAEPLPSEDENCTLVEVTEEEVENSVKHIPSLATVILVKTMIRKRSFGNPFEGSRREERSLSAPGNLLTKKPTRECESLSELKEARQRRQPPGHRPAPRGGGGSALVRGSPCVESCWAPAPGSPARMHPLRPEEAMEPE
# Chain of Calcium/calmodulin-dependent protein kinase type II subunit beta (Homo sapiens) (Q13554 whole entry, the tested form may be a part): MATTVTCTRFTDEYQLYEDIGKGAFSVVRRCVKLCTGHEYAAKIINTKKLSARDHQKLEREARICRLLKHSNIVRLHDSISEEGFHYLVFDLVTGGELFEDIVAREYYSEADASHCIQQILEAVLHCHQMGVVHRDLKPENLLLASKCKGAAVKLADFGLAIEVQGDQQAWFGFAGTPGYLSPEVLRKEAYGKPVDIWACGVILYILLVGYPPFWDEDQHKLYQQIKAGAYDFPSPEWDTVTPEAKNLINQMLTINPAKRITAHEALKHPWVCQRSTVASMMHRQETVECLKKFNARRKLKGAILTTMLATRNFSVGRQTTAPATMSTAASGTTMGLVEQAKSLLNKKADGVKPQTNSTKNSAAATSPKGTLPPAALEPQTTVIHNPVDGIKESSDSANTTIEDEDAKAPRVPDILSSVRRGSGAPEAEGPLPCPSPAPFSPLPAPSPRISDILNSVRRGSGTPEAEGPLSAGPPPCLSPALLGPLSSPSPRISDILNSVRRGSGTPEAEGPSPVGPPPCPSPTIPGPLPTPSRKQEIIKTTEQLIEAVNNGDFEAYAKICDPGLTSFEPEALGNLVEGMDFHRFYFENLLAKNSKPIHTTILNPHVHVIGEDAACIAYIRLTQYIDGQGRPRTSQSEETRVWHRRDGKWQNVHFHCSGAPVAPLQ
# Chain of Alpha-1A adrenergic receptor (P35348 whole entry): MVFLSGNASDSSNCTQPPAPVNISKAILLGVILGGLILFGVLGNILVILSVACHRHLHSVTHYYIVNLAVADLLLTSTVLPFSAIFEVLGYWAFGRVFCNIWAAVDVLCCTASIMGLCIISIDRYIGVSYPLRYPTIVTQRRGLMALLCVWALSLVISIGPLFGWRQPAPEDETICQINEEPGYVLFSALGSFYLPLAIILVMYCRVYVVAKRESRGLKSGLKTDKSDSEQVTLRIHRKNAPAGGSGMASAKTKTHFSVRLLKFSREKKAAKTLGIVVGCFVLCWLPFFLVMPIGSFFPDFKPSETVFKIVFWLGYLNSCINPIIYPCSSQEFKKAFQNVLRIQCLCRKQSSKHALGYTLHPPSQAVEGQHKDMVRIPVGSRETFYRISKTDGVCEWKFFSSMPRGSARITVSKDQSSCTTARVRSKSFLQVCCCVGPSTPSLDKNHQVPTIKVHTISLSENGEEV
# Chain of RAC-gamma serine/threonine-protein kinase (Q9Y243 whole entry): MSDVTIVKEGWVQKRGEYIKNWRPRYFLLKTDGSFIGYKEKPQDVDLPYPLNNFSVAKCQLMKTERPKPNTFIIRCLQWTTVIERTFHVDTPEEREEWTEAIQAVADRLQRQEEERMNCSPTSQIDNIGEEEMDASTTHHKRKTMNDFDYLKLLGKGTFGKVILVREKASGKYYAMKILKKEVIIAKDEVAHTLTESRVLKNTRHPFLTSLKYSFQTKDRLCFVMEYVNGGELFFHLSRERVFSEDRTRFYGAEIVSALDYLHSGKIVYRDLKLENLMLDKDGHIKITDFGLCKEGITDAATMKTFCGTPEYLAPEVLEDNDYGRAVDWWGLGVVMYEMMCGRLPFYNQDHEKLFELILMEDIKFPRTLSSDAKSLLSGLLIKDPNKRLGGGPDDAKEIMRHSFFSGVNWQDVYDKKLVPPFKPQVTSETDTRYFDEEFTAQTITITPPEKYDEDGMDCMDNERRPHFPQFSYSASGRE
# Chain of RAC-alpha serine/threonine-protein kinase (P31749 whole entry): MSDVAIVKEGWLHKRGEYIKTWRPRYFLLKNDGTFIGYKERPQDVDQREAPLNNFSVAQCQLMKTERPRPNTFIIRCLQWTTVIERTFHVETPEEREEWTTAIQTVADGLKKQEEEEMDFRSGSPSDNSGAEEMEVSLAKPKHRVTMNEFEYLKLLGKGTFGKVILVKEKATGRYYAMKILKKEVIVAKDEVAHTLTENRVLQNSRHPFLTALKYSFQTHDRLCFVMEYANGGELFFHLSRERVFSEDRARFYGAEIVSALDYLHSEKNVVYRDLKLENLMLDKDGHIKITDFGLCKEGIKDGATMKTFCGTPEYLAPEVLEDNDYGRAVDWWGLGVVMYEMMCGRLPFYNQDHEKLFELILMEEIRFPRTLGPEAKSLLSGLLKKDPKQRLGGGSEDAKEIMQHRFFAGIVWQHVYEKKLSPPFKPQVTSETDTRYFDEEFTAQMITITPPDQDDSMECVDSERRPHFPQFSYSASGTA
compound,measurement,setting,value
CC(=O)Nc1cccc(-n2c(=O)n(C3CC3)c(=O)c3c(Nc4ccc(I)cc4F)n(C)c(=O)c(C)c32)c1,% of control,[1],74%
same,% of control,[2],107%
COc1cc(N(C)c2ccnc3ccc(C(F)(F)F)cc23)cc(OC)c1OC,% binding,[3],85%
CCC(=O)N1CC[C@H](Nc2ncnc3c2CN(c2cnc(OC)c(C(F)(F)F)c2)CC3)C1 [LENIOLISIB],pIC50,[4],< 4.52
CCN(CC)CCCCNc1ncc2cc(-c3cc(OC)cc(OC)c3)c(NC(=O)NC(C)(C)C)nc2n1,% of control,[5],100%
CC[C@@H]1[C@H](F)C(=O)N[C@@H]1COc1nccc2cc(C(N)=O)c(OC)cc12 [ZIMLOVISERTIB],% of inhibition,[6],1.08%
same,% of inhibition,[7],-60.5%
CN(C)C/C=C/C(=O)Nc1ccc(C(=O)N2CCCC(Nc3ncc(Cl)c(-c4c[nH]c5ccccc45)n3)C2)cc1 (configuration not stated),% of control,[8],81%
C=CC(=O)Nc1cc(-n2c(=O)ccc3cnc4ccc(-c5ccc(NS(C)(=O)=O)cc5)cc4c32)ccc1C,% of control,[9]; at 1 µM,100%
same,% of control,[9]; at 10 µM,74%
O[C@H]1CC[C@H](Nc2ncc3nc(Nc4c(F)cc(F)cc4F)n([C@H]4CCOC4)c3n2)CC1,% of control,[10],100%
Cc1cc([C@@H](C)Nc2ccccc2C(=O)O)c2nc(N3CCOCC3)cc(=O)n2c1 [AZD-6482],% of control,[11],90%
